In ChEMBL document CHEMBL1135101, “Combinatorial synthesis of 3-(amidoalkyl) and 3-(aminoalkyl)-2-arylindole derivatives: discovery of potent ligands for a variety of G-protein coupled receptors” (Bioorg Med Chem Lett, 2002):

Key:
[1] = target: T1, Gonadotropin-releasing hormone receptor (Homo sapiens) (UniProt P30968); test: Binding affinity towards GnRH receptor
T1 sequence (whole entry): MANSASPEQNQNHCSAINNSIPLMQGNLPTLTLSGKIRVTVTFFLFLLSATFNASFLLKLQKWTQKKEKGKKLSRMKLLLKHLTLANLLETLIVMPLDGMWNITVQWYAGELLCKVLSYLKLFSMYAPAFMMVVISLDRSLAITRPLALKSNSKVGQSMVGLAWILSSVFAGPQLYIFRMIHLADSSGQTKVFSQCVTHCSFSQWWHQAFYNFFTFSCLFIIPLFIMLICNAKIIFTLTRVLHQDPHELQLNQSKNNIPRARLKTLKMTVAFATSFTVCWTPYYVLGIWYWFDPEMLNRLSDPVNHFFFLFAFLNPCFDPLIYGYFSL

[2] = target: 5-hydroxytryptamine receptor 7 (Homo sapiens) (UniProt P34969); test: Binding affinity towards 5-hydroxytryptamine 7 receptor
[3] = target: 5-hydroxytryptamine receptor 5A (Homo sapiens) (UniProt P47898); test: Binding affinity towards 5-HT5a receptor
[4] = target: 5-hydroxytryptamine receptor 6 (Homo sapiens) (UniProt P50406); test: Binding affinity towards human 5-hydroxytryptamine 6 receptor
[5] = target: T2, 5-hydroxytryptamine receptor 1A (Homo sapiens) (UniProt P08908); test: Binding affinity towards 5-hydroxytryptamine 1A receptor
T2 sequence (whole entry): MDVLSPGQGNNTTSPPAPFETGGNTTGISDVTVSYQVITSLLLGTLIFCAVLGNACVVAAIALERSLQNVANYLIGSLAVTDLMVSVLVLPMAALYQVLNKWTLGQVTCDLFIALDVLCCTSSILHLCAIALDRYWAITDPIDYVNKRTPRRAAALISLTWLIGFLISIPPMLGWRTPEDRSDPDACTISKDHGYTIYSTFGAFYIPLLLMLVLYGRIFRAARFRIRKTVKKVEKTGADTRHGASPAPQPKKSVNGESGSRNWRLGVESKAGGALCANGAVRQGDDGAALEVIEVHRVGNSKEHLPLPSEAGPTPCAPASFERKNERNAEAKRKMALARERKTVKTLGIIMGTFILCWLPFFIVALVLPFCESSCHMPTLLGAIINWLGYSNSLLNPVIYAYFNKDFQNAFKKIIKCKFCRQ

[6] = target: T3, Neuropeptide Y receptor type 1 (Homo sapiens) (UniProt P25929); test: Binding affinity towards NPY1 receptor
T3 sequence (whole entry): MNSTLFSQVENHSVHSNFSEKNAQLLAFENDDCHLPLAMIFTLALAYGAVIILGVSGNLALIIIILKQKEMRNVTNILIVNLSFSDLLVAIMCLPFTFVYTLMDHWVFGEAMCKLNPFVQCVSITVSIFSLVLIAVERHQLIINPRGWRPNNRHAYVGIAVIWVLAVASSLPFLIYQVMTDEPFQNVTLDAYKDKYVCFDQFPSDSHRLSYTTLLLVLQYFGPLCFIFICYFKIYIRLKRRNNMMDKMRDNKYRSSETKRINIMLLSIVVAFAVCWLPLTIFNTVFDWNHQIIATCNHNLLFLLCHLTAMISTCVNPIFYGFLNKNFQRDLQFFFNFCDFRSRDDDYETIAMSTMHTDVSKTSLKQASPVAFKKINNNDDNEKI

[7] = target: T4, Neuropeptide Y receptor type 5 (Homo sapiens) (UniProt Q15761); test: Binding affinity towards NPY5 receptor
T4 sequence (whole entry): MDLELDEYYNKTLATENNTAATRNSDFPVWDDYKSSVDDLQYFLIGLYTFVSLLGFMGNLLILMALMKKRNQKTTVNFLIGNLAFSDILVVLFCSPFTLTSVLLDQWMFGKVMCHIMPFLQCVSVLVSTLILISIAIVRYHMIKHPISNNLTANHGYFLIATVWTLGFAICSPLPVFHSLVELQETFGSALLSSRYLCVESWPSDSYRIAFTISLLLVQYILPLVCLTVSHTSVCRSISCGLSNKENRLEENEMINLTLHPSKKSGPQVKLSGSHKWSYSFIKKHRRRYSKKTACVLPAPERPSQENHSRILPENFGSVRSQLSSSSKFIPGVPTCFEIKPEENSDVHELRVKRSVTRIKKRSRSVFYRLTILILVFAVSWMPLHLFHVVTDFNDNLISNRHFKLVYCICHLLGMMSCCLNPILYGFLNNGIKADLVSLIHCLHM

[8] = target: C-C chemokine receptor type 5 (Homo sapiens) (UniProt P51681); test: Binding affinity towards CCR5 receptor
[9] = target: T5, C-C chemokine receptor type 3 (Homo sapiens) (UniProt P51677); test: Binding affinity towards CCR3 receptor
T5 sequence (whole entry): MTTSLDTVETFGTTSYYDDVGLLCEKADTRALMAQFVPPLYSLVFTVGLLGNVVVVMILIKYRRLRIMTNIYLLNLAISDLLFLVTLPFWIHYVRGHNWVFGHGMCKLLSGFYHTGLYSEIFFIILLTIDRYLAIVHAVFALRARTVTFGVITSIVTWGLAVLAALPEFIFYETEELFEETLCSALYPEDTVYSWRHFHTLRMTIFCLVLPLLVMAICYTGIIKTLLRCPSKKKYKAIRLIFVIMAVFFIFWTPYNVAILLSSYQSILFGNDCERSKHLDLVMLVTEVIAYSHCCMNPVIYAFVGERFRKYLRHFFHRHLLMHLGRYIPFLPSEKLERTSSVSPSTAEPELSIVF

[10] = target: C-C chemokine receptor type 2 (Homo sapiens) (UniProt P41597); test: Binding affinity towards CCR2 receptor
[11] = target: T6, C-X-C chemokine receptor type 3 (Homo sapiens) (UniProt P49682); test: Binding affinity towards CXCR3 receptor
T6 sequence (whole entry): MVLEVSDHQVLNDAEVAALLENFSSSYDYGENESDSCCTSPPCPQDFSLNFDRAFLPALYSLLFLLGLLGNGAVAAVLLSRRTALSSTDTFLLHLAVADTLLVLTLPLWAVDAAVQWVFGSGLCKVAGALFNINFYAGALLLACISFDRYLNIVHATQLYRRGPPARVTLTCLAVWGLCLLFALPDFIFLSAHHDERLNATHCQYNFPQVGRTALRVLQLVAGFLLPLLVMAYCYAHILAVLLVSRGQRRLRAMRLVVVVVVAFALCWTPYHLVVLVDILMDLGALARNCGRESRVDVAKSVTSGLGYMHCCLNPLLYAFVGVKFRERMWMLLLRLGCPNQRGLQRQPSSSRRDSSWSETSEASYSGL

[12] = target: T7, C-C chemokine receptor type 1 (Homo sapiens) (UniProt P32246); test: Binding affinity towards CCR1 receptor
T7 sequence (whole entry): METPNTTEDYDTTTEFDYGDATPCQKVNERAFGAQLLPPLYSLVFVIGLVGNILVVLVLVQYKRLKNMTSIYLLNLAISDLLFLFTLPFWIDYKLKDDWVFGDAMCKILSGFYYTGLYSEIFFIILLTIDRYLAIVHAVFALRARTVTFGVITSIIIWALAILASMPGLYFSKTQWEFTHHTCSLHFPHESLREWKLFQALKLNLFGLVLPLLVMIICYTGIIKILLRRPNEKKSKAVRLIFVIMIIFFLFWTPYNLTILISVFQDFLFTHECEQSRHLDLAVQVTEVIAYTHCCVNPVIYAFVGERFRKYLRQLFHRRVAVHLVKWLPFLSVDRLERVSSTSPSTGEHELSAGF

[13] = target: C-X-C chemokine receptor type 4 (Homo sapiens) (UniProt P61073); test: Binding affinity towards CXCR4 receptor
[14] = target: Melanocortin receptor 4 (Homo sapiens) (UniProt P32245); test: Binding affinity towards MCR-4 receptor
[15] = target: 5-hydroxytryptamine receptor 2A (Homo sapiens) (UniProt P28223); test: Binding affinity towards 5-hydroxytryptamine 2A receptor
[16] = target: T8, 5-hydroxytryptamine receptor 2C (Homo sapiens) (UniProt P28335); test: Binding affinity towards 5-hydroxytryptamine 2C receptor
T8 sequence (whole entry): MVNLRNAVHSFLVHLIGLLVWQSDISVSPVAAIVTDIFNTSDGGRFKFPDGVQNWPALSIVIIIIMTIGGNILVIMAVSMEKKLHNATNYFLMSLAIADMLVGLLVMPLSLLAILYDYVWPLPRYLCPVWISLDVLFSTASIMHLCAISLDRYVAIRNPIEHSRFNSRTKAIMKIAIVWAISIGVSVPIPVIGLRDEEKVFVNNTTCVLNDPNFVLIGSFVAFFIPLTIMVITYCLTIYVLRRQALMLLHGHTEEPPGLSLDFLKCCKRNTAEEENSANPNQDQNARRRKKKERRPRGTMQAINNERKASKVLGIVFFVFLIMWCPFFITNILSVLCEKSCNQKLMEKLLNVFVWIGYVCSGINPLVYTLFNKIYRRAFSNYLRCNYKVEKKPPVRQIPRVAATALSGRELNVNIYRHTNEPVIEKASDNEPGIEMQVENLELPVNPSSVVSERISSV

[17] = target: T9, Substance-K receptor (Homo sapiens) (UniProt P21452); test: Binding affinity towards NK2 receptor
T9 sequence (whole entry): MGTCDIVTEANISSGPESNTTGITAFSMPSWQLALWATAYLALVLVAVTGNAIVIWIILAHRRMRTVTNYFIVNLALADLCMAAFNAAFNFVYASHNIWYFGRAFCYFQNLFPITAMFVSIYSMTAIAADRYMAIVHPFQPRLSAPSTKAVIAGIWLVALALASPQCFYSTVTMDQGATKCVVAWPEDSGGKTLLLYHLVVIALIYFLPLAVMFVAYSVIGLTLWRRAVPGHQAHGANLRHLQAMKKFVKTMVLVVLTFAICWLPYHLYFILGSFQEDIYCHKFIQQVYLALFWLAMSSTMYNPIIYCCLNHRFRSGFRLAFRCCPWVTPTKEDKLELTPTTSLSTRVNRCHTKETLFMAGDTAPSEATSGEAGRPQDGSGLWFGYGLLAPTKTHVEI

[18] = target: Substance-P receptor (Homo sapiens) (UniProt P25103); test: Binding affinity towards human NK1 receptor
[19] = target: T10, Neuromedin-K receptor (Homo sapiens) (UniProt P29371); test: Binding affinity towards NK3 receptor
T10 sequence (whole entry): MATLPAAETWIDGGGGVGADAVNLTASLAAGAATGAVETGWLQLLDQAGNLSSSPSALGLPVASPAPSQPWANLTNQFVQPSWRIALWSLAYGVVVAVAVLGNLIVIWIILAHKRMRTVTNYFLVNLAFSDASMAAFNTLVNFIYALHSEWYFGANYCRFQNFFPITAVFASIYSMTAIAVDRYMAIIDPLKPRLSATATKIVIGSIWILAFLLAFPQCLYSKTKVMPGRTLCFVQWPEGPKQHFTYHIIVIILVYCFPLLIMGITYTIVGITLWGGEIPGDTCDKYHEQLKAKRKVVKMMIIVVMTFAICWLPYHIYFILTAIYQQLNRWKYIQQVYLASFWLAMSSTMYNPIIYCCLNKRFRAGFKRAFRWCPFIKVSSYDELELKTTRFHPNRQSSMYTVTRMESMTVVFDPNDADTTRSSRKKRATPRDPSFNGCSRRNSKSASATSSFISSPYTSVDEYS

5-hydroxytryptamine receptor 7 (Homo sapiens), sequence (P34969 whole entry): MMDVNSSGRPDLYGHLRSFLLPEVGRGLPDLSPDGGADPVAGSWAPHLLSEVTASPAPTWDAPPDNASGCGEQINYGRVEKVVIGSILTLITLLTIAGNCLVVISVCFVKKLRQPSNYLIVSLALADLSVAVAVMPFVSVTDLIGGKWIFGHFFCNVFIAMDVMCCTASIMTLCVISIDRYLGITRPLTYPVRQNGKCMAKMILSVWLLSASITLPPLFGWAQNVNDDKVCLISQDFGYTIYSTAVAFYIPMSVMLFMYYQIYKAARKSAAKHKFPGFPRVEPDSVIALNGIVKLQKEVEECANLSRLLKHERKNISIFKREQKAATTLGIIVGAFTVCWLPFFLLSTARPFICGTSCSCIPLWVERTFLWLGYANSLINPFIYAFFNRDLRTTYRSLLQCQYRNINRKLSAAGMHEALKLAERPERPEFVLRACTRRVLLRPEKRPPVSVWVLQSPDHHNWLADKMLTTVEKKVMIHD
5-hydroxytryptamine receptor 6 (Homo sapiens), sequence (P50406 whole entry): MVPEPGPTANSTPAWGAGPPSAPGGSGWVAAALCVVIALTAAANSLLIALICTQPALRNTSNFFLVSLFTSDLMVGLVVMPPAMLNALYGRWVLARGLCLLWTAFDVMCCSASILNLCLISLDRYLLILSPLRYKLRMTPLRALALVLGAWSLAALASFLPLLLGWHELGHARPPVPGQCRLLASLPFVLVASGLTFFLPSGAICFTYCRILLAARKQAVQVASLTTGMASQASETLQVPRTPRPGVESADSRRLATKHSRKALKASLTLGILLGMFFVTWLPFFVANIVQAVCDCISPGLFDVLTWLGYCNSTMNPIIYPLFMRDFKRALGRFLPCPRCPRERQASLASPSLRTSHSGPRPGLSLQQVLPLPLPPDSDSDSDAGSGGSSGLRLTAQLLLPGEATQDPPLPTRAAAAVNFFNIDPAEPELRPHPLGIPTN
5-hydroxytryptamine receptor 5A (Homo sapiens), sequence (P47898 whole entry): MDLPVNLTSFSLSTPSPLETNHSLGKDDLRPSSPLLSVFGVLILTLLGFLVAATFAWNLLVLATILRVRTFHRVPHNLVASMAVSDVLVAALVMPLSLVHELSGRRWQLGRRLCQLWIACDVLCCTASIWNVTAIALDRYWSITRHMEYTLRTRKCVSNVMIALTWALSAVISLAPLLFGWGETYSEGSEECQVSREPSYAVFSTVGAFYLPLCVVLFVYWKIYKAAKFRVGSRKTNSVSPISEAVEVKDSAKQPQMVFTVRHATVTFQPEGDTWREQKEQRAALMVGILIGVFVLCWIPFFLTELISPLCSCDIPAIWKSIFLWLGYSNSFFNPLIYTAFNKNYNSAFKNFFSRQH
C-C chemokine receptor type 2 (Homo sapiens), sequence (P41597 whole entry, looked up): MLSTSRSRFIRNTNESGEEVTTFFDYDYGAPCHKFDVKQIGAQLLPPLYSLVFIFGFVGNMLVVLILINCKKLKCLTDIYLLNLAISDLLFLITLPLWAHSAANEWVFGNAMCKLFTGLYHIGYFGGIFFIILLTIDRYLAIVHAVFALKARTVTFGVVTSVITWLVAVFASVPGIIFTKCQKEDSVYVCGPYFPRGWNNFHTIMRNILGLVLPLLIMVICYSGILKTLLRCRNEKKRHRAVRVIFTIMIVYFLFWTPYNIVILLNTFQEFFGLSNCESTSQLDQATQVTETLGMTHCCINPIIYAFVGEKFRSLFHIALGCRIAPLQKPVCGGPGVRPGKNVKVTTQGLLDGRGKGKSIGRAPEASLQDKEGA
C-X-C chemokine receptor type 4 (Homo sapiens), sequence (P61073 whole entry): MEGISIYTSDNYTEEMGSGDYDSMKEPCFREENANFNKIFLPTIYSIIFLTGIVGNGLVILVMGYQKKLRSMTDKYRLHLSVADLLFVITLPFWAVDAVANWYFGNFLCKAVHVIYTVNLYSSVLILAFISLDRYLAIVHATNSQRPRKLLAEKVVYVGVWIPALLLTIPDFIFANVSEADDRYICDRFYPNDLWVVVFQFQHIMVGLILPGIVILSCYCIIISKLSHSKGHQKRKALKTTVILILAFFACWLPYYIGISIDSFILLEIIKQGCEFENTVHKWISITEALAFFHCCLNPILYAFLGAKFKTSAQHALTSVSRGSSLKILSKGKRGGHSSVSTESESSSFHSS
Melanocortin receptor 4 (Homo sapiens), sequence (P32245 whole entry): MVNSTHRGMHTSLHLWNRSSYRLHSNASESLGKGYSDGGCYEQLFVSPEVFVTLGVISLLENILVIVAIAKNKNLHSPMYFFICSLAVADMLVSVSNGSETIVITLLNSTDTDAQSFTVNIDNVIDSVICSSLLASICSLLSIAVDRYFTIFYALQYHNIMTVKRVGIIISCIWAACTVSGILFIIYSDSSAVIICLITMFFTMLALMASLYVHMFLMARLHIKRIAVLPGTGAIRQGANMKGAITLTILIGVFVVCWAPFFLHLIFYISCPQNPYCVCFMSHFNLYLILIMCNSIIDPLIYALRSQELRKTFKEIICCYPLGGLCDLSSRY
C-C chemokine receptor type 5 (Homo sapiens), sequence (P51681 whole entry, looked up): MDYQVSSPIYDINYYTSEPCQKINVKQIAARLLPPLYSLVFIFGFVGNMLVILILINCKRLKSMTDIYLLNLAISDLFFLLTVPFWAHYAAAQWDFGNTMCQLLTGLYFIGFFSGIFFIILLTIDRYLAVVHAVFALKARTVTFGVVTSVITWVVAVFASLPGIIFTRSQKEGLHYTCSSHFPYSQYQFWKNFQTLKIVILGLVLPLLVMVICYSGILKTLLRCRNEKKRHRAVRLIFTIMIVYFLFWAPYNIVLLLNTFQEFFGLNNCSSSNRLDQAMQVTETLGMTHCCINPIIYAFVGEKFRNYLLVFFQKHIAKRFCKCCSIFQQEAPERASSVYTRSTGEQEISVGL
5-hydroxytryptamine receptor 2A (Homo sapiens), sequence (P28223 whole entry): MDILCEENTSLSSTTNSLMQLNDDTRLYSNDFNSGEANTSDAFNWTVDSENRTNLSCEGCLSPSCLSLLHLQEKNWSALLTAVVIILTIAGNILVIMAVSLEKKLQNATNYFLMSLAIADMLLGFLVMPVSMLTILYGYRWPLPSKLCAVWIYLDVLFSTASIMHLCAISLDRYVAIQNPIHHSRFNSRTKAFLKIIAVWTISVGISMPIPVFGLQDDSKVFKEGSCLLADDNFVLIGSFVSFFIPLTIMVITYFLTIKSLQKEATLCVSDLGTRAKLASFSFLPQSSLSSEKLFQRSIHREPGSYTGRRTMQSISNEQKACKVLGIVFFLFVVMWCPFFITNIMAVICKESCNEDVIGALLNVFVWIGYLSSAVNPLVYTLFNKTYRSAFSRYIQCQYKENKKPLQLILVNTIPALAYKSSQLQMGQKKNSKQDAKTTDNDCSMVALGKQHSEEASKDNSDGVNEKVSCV
Substance-P receptor (Homo sapiens), sequence (P25103 whole entry): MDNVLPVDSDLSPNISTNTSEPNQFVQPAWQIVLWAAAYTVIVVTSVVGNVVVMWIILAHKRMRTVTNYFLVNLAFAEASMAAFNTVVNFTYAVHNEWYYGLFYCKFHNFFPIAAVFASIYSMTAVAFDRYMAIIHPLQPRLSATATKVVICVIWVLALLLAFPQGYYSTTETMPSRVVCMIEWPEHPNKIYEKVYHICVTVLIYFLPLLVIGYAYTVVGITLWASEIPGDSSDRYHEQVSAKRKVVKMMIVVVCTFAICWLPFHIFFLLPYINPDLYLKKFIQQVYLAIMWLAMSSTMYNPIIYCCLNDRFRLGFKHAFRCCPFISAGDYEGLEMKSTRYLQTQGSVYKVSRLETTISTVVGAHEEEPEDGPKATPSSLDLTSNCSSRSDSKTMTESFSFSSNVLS

## CCOC(=O)C(C)(C)c1ccc2[nH]c(-c3cc(C)cc(C)c3)c(CCCN3CCC(O)(c4ccccc4)CC3)c2c1
[1]
  Activity: 52 nM

## CN(C)CCCc1c(-c2cccc(Br)c2)[nH]c2ccccc12
[2]
  Activity: 300 nM
[3]
  Activity: > 1 µM
[4]
  Activity: 0.7 nM
[5]
  Activity: > 1 µM

## CC(NCCCc1c(-c2cccc(Br)c2)[nH]c2ccccc12)c1ccc(O)cc1 (stereo not drawn)
[6]
  Activity: > 10 µM
[7]
  Activity: 0.8 nM

## Brc1ccc(-c2[nH]c3ccc4ccccc4c3c2CCCNC2CCC(c3ccccc3)C2)cc1 (stereo not drawn)
[8]
  Activity: 1190 nM
[9]
  Activity: 920 nM
[10]
  Activity: > 10 µM
[11]
  Activity: > 10 µM
[12]
  Activity: > 10 µM
[13]
  Activity: 1520 nM

## Cc1ccc2[nH]c(-c3ccc(Br)cc3)c(CCCCCNC3CCCCC3)c2c1
[14]
  Activity: 612 nM

## Brc1ccc(-c2[nH]c3cccc(-c4ccccc4)c3c2CCCN2CCCC2)cc1
[15]
  Activity: 10 nM
[2]
  Activity: > 1000 nM
[3]
  Activity: > 1 µM
[16]
  Activity: 60 nM
[4]
  Activity: 635 nM
[5]
  Activity: > 1 µM

## COc1ccccc1N1CCN(C(=O)CCc2c(-c3ccc(Br)cc3)[nH]c3ccc(C)cc23)CC1
[17]
  Activity: > 10 µM
[18]
  Activity: 0.8 nM
[19]
  Activity: > 10 µM
